# “And” between values parts separate entries of the source, which are not always exact repeats. Equal entries are not always repeated.
# Assays:
# STHdh 111/111 = experiment: Morphology of striatal cells expressing mutated huntingtin; assay type: cell-based, mouse; settings: treated versus not treated STHdh 111/111
# Htt Exon-1 Q16 = Htt Exon-1 Q16 (Homo sapiens, UniProt P42858, DEL34-38); experiment: Dynamic Light Scattering (DLS), induced aggregation; assay type: biochemical
# Method: (§1) Proteins were ultracentrifuged with 50,000 rpm (rounds per minute) for one hour at 2 °C. The supernatant was used for DLS measurements. DLS measurements were conducted with Malvern Zetasizer Nano (Malvern Panalytical Ltd, United Kingdom).
# (§2) Futher experiments were made with Htt Exon-1 Q16 and Q46. Table 28 Size Distribution (Volume and Number) of Q16 under various conditions
# Htt Exon-1 Q46 = target: T1, Htt Exon-1 Q46 (Homo sapiens, UniProt P42858, INS38QQQQQQQQQQQQQQQQQQQQQQQQQ); experiment: as above; assay type: biochemical
# T1 construct: Futher experiments were made with Htt Exon-1 Q16 and Q46
# T1 sequence (P42858 with tags, fused parts or gaps with the stated changes): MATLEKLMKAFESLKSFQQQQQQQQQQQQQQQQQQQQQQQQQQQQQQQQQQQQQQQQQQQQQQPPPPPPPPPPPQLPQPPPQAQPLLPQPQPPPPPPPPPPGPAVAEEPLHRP
# Method: as §1, §2
# C. elegans = C. elegans lifespan assay (Automated Lifespan Machine); assay type: in vivo
# Method: Experimental Design: The lifespan assay was initiated by expanding all replicate groups to more than 1000 worms, then synchronizing by bleaching and allowing larval worms to hatch and arrest. To eliminate the effect of bacterial metabolism and growth on lifespan, synchronized worms were only exposed to dead food bacteria. To suppress progeny, worms are transferred to media containing 5-Fluorodeoxyuridine (FUdR) within 54-60 hours post plating. Worms are inspected at 24 and48 hours after this transfer to confirm infertility. Finally, the worms are inspected for general health and morphology before transferring to scanner plates. The scanner plates are incubated for an additional 2 days and inspected again before loading on to scanners. To understand the physiological impact of either genetic variation or pharmacological treatment on aging, it is crucial to use quantitative models. The analysis of lifespan data is grounded in the study of two mathematical functions: the survival curve and the hazard function. The survival curve (Figure 54) describes the fraction of a tested population that remains alive over time. The hazard function (Figure 55) is related to the survival curve and provides an intuitive measure of the risk of death. This function describes the probability that atypical individual who is currently alive will soon die, providing a clear visualization of the way a treatment may change patterns in mortality. To obtain high-resolution lifespan data and eliminate confounding factors such as worm handling and operator bias, lifespan data was collected using an Automated Lifespan Machine (ALM). Three biological replicates, derived from synchronizing three independently-maintained lines of N2 worms, were distributed across scanner instruments. Images of the worms were then collected for the next 35 days with no interruption or manipulations. Some plates were excluded after quality checks, but plate number and worm counts for all replicates exceeded the threshold for statistical significance (Table 32, row 1).Lifespan data are represented as the percent of worms surviving over time and the profile of this curve can be modeled by the Kaplan-Meier Estimate of Survival function (Figure 54). The survival curves can be compared by several statistics including mean, median, and maximum lifespan (Table 32), as well as the age of worms at a specific percent survival (Table 34). However, to determine whether one treatment group lived longer than another, survival curves are holistically compared using a log-rank test (Table 33). In this study, all pairwise comparisons between conditions were statistically significant. Tables 32 to 34 detail the raw measurements, calculations, and statistical analysis related to the survival curve in Figure 54. Lifespan is counted with day 0 set at day 1 of adulthood. No death times are recorded until worms are placed on the scanner on day 8 so earlier deaths are excluded from calculations of mean and median. Median lifespan is equal to the time at which 50% of the subjects have died. Mean lifespan is calculated from the area under the survival curve. Maximum lifespan is equal to 95th percentile of lifespans in each group. C.I.: Confidence Interval. See Figure 55 and Table 33 for statistical analysis Table 33: Pairwise statistical analysis of survival curves.
# [1] = by number, equimolar Compound 4
# [2] = by volume, equimolar Compound 4
# [3] = by intensity, equimolar Compound 4
# Sequence of Htt Exon-1 Q16 (P42858 with tags, fused parts or gaps DEL34-38): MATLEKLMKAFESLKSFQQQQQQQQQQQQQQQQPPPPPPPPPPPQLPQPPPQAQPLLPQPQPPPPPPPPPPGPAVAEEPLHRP
smiles,measurement,setting,value
"CCc1c(C)[nH]c2ccc(C(=O)NCCN(CC)CC)cc12 [Compound 4, N-(2-(diethylamino)ethyl)-3-ethyl-2-methyl-1H-indole-5-carboxamide]",cell morphology,STHdh 111/111,"improved cell viability, dendrite outgrowth and increased cell size"
same,"% Number, Peak 1",Htt Exon-1 Q16; [1],100%
same,"Size, Peak 1",Htt Exon-1 Q16; [1],6.0 nm and 6.063 nm
same,"% Volume, Peak 1",Htt Exon-1 Q16; [2],0.2%
same,"% Volume, Peak 2",Htt Exon-1 Q16; [2],99.8%
same,"Size, Peak 1",Htt Exon-1 Q16; [2],93.12 nm
same,"Size, Peak 2",Htt Exon-1 Q16; [2],6.949 nm
same,assembly state of Q16,Htt Exon-1 Q16; exposed to Compound 4,mainly monomeric
same,"% Intensity, Peak 1",Htt Exon-1 Q46; [3],83.1%
same,"% Intensity, Peak 2",Htt Exon-1 Q46; [3],12.9%
same,"% Intensity, Peak 3",Htt Exon-1 Q46; [3],"4,1%"
same,"Size, Peak 1",Htt Exon-1 Q46; [3],178.7 nm
same,"Size, Peak 2",Htt Exon-1 Q46; [3],9.275 nm
same,"Size, Peak 3",Htt Exon-1 Q46; [3],3917 nm
same,assembly state of Q46,Htt Exon-1 Q46; exposed to Compound 4,assembles as mostly aggregates and larger aggregates
same,Age at 25% mortality,C. elegans; 200 nM,21.42 days
same,Age at 50% mortality,C. elegans; 200 nM,26.16 days
same,Age at 75% mortality,C. elegans; 200 nM,29.57 days
same,Age at 90% mortality,C. elegans; 200 nM,31.75 days
same,Age at 100% mortality,C. elegans; 200 nM,39.46 days
same,Median lifespan,C. elegans; 200nM (vehicle control 24.3),26.2 days
same,Mean lifespan,C. elegans; 200nM (vehicle control 24.7),25.7
same,Maximum lifespan,"C. elegans; 200nM (vehicle control 34.9), 95th percentile",33.7 days
same,Age at 25% mortality,C. elegans; 2 µM,23.9 days
same,Age at 50% mortality,C. elegans; 2 µM,27.54 days
same,Age at 75% mortality,C. elegans; 2 µM,29.41 days
same,Age at 90% mortality,C. elegans; 2 µM,31.23 days
same,Age at 100% mortality,C. elegans; 2 µM,39.42 days
same,Median lifespan,C. elegans; 2µM (vehicle control 24.3),27.6 days

# From patent publication EP4140481A1, “PROTEIN-OLIGOMER BINDING AGENTS AND THERAPEUTIC USES THEREOF” (Galyan Bio, Inc., priority 2021, dated 2023)
